Assay results as given in patent publication US10324079B2, “Method for rapid testing allergy” (priority 2013, dated 2019).

Tests used:
Format in all cases: cell-based, human
[1] = test system: lymphocytes of the patient; experiment: DLST (drug-induced lymphocyte stimulation test)
Experimental: (§1) The patient having the typical allergy-like symptom (skin lesion) and the atypical patient were tested by the three different methods, namely the DLST, which is widely used for clinical tests, the LMT, which is sometimes reported more accurate than the DLST, and the present method, and then the results were compared. […] The typical case was determined as negative though the patient clearly developed the skin symptom of the toxic epidermal necrolysis (TEN) according to the clinical presentation and the clinical course.

[2] = test system: leukocytes of the patient; experiment: LMT (leukocyte migration test); details: positive with MI value > 150 and p < 0.05
Experimental: as §1

[3] = test system: Peripheral blood Mononuclear cells (PBMC) of patient #3; leukocytes of a healthy volunteer as chemotactic cells; experiment: Migration of healthy-volunteer leukocytes toward reactive solution of patient #3 mononuclear cells stimulated with suspected drug (Example 3); details: for Velocity (judgment of migration velocity, % of control) / Distance (judgment of migration distance, % of control): patient #3 PBMC + serum, 72 h, suspected drugs at ½ of Cmax, PHA 1 μg/ml, relative to PHA-stimulated reactive solution; for chemotaxis or migration ability of the chemotactic cells (FIG. 5A): images recorded for 20 minutes
Experimental: Leukocytes including granulocytes such as neutrophils were separated from heparinized blood of a healthy volunteer who had no allergic symptom by the density gradient centrifugation (Lymphocyte (Registered Trademark)—poly: CEDARLANE Labs. Ltd., Ontario, Canada) in accordance with a conventional method, and suspended in 5 ml of a culture medium (RPMI 1640: Sigma-Aldrich, MO, USA). After culturing the cells in a CO2 incubator at 37° C. for 1 hour the cells was adjusted to the concentration of about 5×10^5 cells/ml and used as chemotactic cells.
The chemotactic cells were injected into the lower well in the holder of EZ-TAXIScan™ (GE Healthcare, Tokyo) at about 5 μl/well, and were drawn to the end of the observation terrace by suction. Subsequently, the serum was injected into the upper well at 1.5 μl/well with a microsyringe to create a concentration gradient on the observation terrace, and images of the chemotactic cells on the observation terrace were sequentially recorded. The depth of the terrace was 4 μm.
The kinetics of the chemotactic cells migrating on the observation terrace was analyzed with software for processing images, ImageJ (NIH, MD, USA). Various parameters concerned with chemotaxis or migration ability of the cell toward the serum such as velocity, distance and direction of the migration were calculated. The statistical analysis was performed using GraphPad Prism (Registered Trademark) (GraphPad Software, CA, USA).
A drug solution was prepared by dissolving a drug in a Hank's balanced salt solution (HBSS: Sigma-Aldrich) if the drug was a solid preparation such as a soluble tablet or a powder. If the drug was poorly soluble, it was dissolved in Dimethyl-sulfoxide (DMSO: Sigma-Aldrich) and the solution was diluted with HBSS so that the final concentration of DMSO was 1% or less. A solution containing the drug solution and the serum of the patient in a ratio of 1:1 was used as a solution of the antigenic drug. The concentrations of the suspected drugs were set to ½ of the Cmax in principle. The concentration of phytohemagglutinin (PHA: Wako Pure Chemical Industries, Ltd., Osaka), a control antigen for stimulating or activating the lymphocytes, was set to 1 μg/ml.
Peripheral blood Mononuclear cells (PBMC) were separated from heparinized blood of the patient by density gradient centrifugation (Lymphoprep™: Axis-Shield PoC, Oslo, Norway) in a conventional manner, washed with HBSS, and then adjusted to the concentration of about 5×10^6 cells/ml with a culture medium for reaction (RPMI 1640 containing 10% horse serum (Invitrogen, CA, USA)).
A mixture of the suspension of the mononuclear cells and the solution of the antigenic drug in a ratio of 4:1 was reacted in a CO2 incubator at 37° C. for 72 hours, and the supernatant was used as a reactive solution stimulated with the antigen. PHA (a), gasmotin (b), dogmatyl (c), pariet (d) and DMSO (e) were used as the antigen.
The cell kinetics was measured in the substantially same manner as in Example 1 excepting that the reactive solution stimulated with the antigen was injected into the upper well in place of the serum.

[4] = patient #3, vs other suspected drugs and solvent (c, d and e), p<0.05

Molecule	LMT (MI value) ([2]; Patient A)	Velocity (judgment of migration velocity, % of control) [3]	chemotaxis or migration ability of the chemotactic cells (FIG. 5A) ([3]; patient #3)	Distance (judgment of migration distance, % of control) [3]	further results
CCC(C)n1ncn(-c2ccc(N3CCN(c4ccc(OCC5COC(Cn6cncn6)(c6ccc(Cl)cc6Cl)O5)cc4)CC3)cc2)c1=O (stereo not shown) [Itraconazole]	–	–	–	–	DLST (SI value) ([1]; Patient B, test 1, positive with SI value > 180): 151; DLST (SI value) ([1]; Patient B, test 2, positive with SI value > 180): 90; LMT (MI value) ([2]; Patient B, test 2): 135.5
CO/N=C(\C(=O)N[C@@H]1C(=O)N2C(C(=O)O)=C(C[N+]3(C)CCCC3)CS[C@H]12)c1csc(N)n1 [Maxipime]	88.21	–	–	–	DLST (SI value) ([1]; Patient A, positive with SI value > 180): 112
CCN1CCCC1CNC(=O)c1cc(S(N)(=O)=O)ccc1OC (stereo not shown) [dogmatyl, Sulpride]	–	+/− (80~90)	–	–	–
COCCCOc1ccnc(C[S+]([O-])c2nc3ccccc3[nH]2)c1C (stereo not shown) [pariet, Rabeprazole sodium]	–	+ (90~120)	–	–	–
Mosapride citrate hydrate [gasmotin]	–	++ (>120)	rapid migration of the chemotactic cells in the positive direction of the density gradient	++ (>120)	migration distance (FIG. 5C) [3, 4]: significantly larger; migration velocity (FIG. 5B) [3, 4]: significantly larger
phytohemagglutinin [PHA]	154.87	+ (90~120)	weaker than that induced with (b) but stronger than those induced with the other suspected drugs	+ (90~120)	DLST (SI value) ([1]; Patient A, class symbol): + (Positive with *SI value > 180 (DLST)); DLST (SI value) ([1]; Patient B, class symbol): + (Positive with *SI value > 180 (DLST)); LMT (MI value) ([2]; Patient B): 283.9
